Experimental data: patent US8710246B2, “Substituted thiophene pentamers” (Biochromix Newco AB, priority 2008, dated 2014)
“Also recorded” adds a separate entry of the source.

Assays:
[1] = tested on: Aβ deposits; assay: Long term in vivo effects on amyloid plaques in transgenic mice, cranial window, multiphoton spectroscopy; conditions: tail vein injection, 10 mg/kg
Excerpt: This long lasting binding to the plaques is advantageous for a long term therapeutic effect of the inventive compounds.

[2] = target: T1, Aβ peptide 1-42 (Homo sapiens, UniProt P05067); assay: In vitro fibrillation of Aβ peptide 1-42 followed by TEM; type: biochemical; conditions: for fibrillation morphology by TEM: 20 μM Aβ 1-42, 37° C.
T1 construct: Aβ peptide 1-42 was dissolved in hexafluoroisopropanol
T1 sequence (P05067 672-713 limits assumed): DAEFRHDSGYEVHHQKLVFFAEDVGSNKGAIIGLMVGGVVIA
Method: Aβ peptide 1-42 was dissolved in hexafluoroisopropanol to a concentration of 1 mg/mL and further diluted to 20 μM in Tris-HCl 5 mM, 75 mM NaCl. The inventive compounds F and G were added in concentrations from 10 to 100 μM and the samples, including references without the inventive compounds, were incubated at 37° C. to initiate fibrillation. After Oh, 20 h and 66 h aliquots were withdrawn, deposited on formvar-carbon coated TEM grids and negatively stained using uranylacetate. A Phillips CM200 run at 200 kV was used to study the progress of fibrillation in the different samples. […] (at Oh). […] These aggregates were covering most of the TEM grid and no smaller fibril or oligomer like structures could be seen. After 66 h of incubation no major change in morphology compared to the 20 h samples could be seen, sheets with separate visible fibrils were found at high density on the grid, of a typical morphology illustrated in FIG. 3.

[3] = tested on: primary chicken neurons; assay: Aβ1-42 induced lesions in primary chicken neurons, MTT viability assay; type: cell-based
Method: T:I 1: p-HTAA, Mw=529 g/mol, diluted in vehicle from stock solution in PBS+1.33% DMSO (10 mg/ml).
T:I 2: POWT-13, Mw=2782 g/mol, diluted in vehicle from stock solution in deionized water (40 mg/ml).
Cell source: Telencephalon neurons from 8-day-old chicken embryos (Lohman Brown hybrid)
Nutrition medium: DMEM with 4.5 g glucose/1, 5% Nu Serum, 0.01% gentamycin, 2 mM L-glutamine
Group size: n=6 for each T.I. and R.I. concentration per experiment
Lesion: 10 μM Aβ1-42 (pre-aggregated for 48 h) at DIV8 for 48 h
Evaluation of the effects: MTT on DIV 10
One-day-old fertilized eggs will be stored under appropriate conditions until start of breeding. On embryonic day 0 eggs will be transferred to the breeding incubator and under turning kept at 37.8° C. and 55% humidity until embryonic day eight. […]
Viability of cultures will be determined with the MTT assay using a plate-reader (570 nm) as described e.g. in SOP MET004. […] Since this reaction is catalysed in living cells only this assay can be used for the quantification of cell viability. […] To estimate optical density, a plate-reader (Anthos HT II or pquant) is used at wavelength 570 nm. […]
After 48 hours of incubation of T.I. and Aβ1-42 on cells (DIV10), viability of neurons will be analysed by the MTT assay.

## O=C(O)Cc1cc(-c2cccs2)sc1-c1ccc(-c2sc(-c3cccs3)cc2CC(=O)O)s1 [Compound G]
[1]; one week after injection
  binding to Aβ deposits in living mouse brain one week after injection: binding of the inventive compounds to AP deposits could still be observed; also recorded: bound to Aβ deposits in living mouse brain one week after injection
[1]; transgenic mice with AD-like pathology
  crossing of the blood brain barrier after intravenous injection: readily cross the blood brain barrier
[2]; 10 μM compound, 20 h
  fibrillation morphology by TEM: no dense aggregates resembling those in the reference sample; also recorded: low density of oligomer like structures
[2]; 100 μM compound, 20 h
  fibrillation morphology by TEM: no dense aggregates resembling those in the reference sample; also recorded: low density of short branched fibrils with a very low contrast; also recorded: Short branched fibrils
[2]; 100 μM compound, 66 h
  fibrillation morphology by TEM: very few separate short proto-fibrils; also recorded: Short proto-fibrils
[2]; overall conclusion, 20 h and 66 h
  effect on the fibrillation of Aβ peptide 1-42: major effect
[3]; test item added to Aβ1-42 during aggregation, then on cells 48 h, FIG. 12
  viability of neurons (MTT): better viability compared to 10 μM Aβ1-42 alone
[3]; test item and pre-aggregated 10 μM Aβ1-42 applied on neurons simultaneously, 48 h, FIG. 11
  viability of neurons (MTT): better viability compared to 10 μM Aβ1-42 alone
